The results in this text go back to ChEMBL document CHEMBL1129211, “Design and synthesis of sialyl Lex mimetics based on carbocyclic scaffolds derived from () quinic acid” (Bioorg Med Chem Lett, 1997).

Assay [1] addresses T1, E-selectin (Homo sapiens) (UniProt P16581).
T1 sequence (whole entry): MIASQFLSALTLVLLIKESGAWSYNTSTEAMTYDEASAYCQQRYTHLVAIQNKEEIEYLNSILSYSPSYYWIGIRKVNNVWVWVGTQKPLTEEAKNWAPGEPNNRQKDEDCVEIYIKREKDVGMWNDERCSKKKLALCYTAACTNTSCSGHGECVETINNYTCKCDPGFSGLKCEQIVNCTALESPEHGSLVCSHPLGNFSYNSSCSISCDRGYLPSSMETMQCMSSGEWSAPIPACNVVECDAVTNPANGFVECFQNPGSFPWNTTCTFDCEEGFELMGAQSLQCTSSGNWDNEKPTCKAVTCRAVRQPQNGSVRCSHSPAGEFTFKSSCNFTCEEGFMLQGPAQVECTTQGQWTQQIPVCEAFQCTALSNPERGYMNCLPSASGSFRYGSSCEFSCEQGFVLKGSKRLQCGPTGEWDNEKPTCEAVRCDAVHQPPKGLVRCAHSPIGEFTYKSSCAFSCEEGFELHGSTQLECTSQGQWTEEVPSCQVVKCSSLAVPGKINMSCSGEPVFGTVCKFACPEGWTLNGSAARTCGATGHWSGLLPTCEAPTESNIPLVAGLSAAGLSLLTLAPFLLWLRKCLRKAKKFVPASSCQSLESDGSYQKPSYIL
As to the kind of experiment: Tested for binding activity against Selectin E of the compound; inactive.

In assay [2] the target is T1, E-selectin (Homo sapiens). As to the kind of experiment: Tested for binding activity against Selectin E of the compound.

Compound `C[C@@H]1O[C@@H](O[C@@H]2[C@@H](O)C[C@@](O)(CO)C[C@H]2O[C@@H]2O[C@@H](CO)[C@H](O)[C@H](OCC(=O)O)[C@@H]2O)[C@@H](O)[C@@H](O)[C@@H]1O` returned an Activity in assay [1] of over 10 mM.
`CC1OC(OC(C)(C)COCC2(O)CCC(O)C(OCC(=O)O)C2O)C(O)C(O)C1O` (centres undefined) yielded an Activity in assay [1] of over 10 mM.
`CC(=O)N[C@H]1[C@H]([C@H](O)[C@H](O)CO)O[C@@](O[C@@H]2[C@H](O)[C@H](O[C@@H]3C[C@](O)(CO)C[C@H](O)[C@H]3O[C@@H]3O[C@@H](C)[C@@H](O)[C@H](O)[C@@H]3O)O[C@@H](CO)[C@@H]2O)(C(=O)O)C[C@H]1O` displayed an Activity in assay [2] of 1 mM.
Consider `CC1OC(OC(C)(C)COCC2CC(O)C(O)C(OCC(=O)O)C2)C(O)C(O)C1O` (centres undefined), for which the Activity in assay [1] was over 10 mM.
